Test results: US9556228B2 (Universitaet Leipzig, priority 2011, dated 2017)
Values after ≈ are worked out from the molar mass of the structure shown. Peptide text beside a SMILES is read from it.

Experiments:
S. aureus DSM 6247 = type: cell-based, Staphylococcus aureus
Protocol: (§1) The minimum inhibitory concentrations (MIC) of the peptides were determined in a double assay of triplicates using a positive control sample (gentamycin) and a negative control sample (0.9% NaCl solution), according to a modified protocol from Wiegand et al. (Wiegand, 2008).
(§2) For this purpose, the peptides were dissolved in water and were diluted in a double dilution series with 1/8 MH (eight-fold diluted Mueller-Hinton-Medium—2.6 g/L, Merck) in sterile 96-well, plates (Greiner Bio-One GmbH) in twelve dilution steps from 128 μg/mL to 62.5 ng/mL. Overnight cultures were adjusted using ⅛ MHB to approximately 1.5×10^7 colony forming units per mL. Of these, 50 μL of peptide solution per well was mixed with 50 μL bacteria solution each to obtain an initial concentration of […] bacteria per well. After 20 hours of incubation at 37′C, the absorption was determined at 595 nm (microplate reader, Wallac Victor3, Perkin Elmer). The minimum inhibitory concentration was identified as the lowest peptide concentration at which no bacterial growth could be detected.
(§3) In the experiment, the antibacterial activity of the peptides according to the invention in relation to the following bacterial strains was analyzed: Pseudomonas aeruginosa PAO1 (wt strain), Pseudomonas aeruginosa DSM 9644, Staphylococcus aureus DSM 1104/ATCC 25923, Staphylococcus aureus ATCC 6247, Escherichia coli UB 1005 (F—, nalA37, metB1) and Escherichia coli ATCC25922.

[1] = system: Pseudomonas aeruginosa PAO1 (wt strain); type: cell-based; conditions: for Improvement over Native Sequence (SEQ No. 2) P. aeruginosa PAO1 wt: fold, from MIC in 1/8 MHB
Protocol: as §1, §2, §3

[2] = system: Staphylococcus aureus DSM 1104/ATCC 25923; type: cell-based; conditions: for MIC S. aureus ATCC 25923 / MIC S. aureus DSM 1104/ATCC 25923: DSM 1104; for Improvement over Native Sequence (SEQ No. 2) S. aureus ATCC 25923: fold, from MIC in 1/8 MHB
Protocol: as §1, §2, §3

[3] = system: Pseudomonas aeruginosa DSM 9644; type: cell-based
Protocol: as §1
[…] Overnight cultures were adjusted using ⅛ MHB to approximately 1.5×10^7 colony forming units per mL. Of these, 50 μL of peptide solution per well was mixed with 50 μL bacteria solution each to obtain an initial concentration of […] bacteria per well. After 20 hours of incubation at 37′C, the absorption was determined at 595 nm (microplate reader, Wallac Victor3, Perkin Elmer). The minimum inhibitory concentration was identified as the lowest peptide concentration at which no bacterial growth could be detected.
as §3

Escherichia coli UB 1005 = experiment: Minimum inhibitory concentration (MIC), broth microdilution; type: cell-based; conditions: for MIC E. coli UB1005: 1/8 MHB, Table 4; for Improvement over Native Sequence (SEQ No. 2) E. coli UB1005: fold, from MIC in 1/8 MHB
Protocol: as §1, §2, §3

[4] = system: Escherichia coli ATCC25922; type: cell-based

| Compound | MIC S. aureus DSM 6247 (S. aureus DSM 6247) [µg/mL] | MIC P. aeruginosa PAO1 wt [1] [µg/mL] | Improvement over Native Sequence (SEQ No. 2) P. aeruginosa PAO1 wt [1] | MIC S. aureus ATCC 25923 [2] [µg/mL] | MIC S. aureus DSM 1104/ATCC 25923 [2] [µg/mL] | Improvement over Native Sequence (SEQ No. 2) S. aureus ATCC 25923 [2] | MIC P. aeruginosa PAO DSM 9644 [3] [µg/mL] | MIC E. coli UB1005 (Escherichia coli UB 1005) [µg/mL] | Improvement over Native Sequence (SEQ No. 2) E. coli UB1005 (Escherichia coli UB 1005) | MIC E. coli ATCC 25922 [4] [µg/mL] |
| --- | --- | --- | --- | --- | --- | --- | --- | --- | --- | --- |
| CC[C@H](C)[C@H](NC(=O)[C@H](Cc1ccc(O)cc1)NC(=O)[C@@H](NC(=O)[C@@H]1CCCN1C(=O)[C@H](CCCNC(=N)N)NC(=O)[C@H](CC(N)=O)NC(=O)[C@H](CC(N)=O)NC(=O)CN)C(C)C)C(=O)N1CCC[C@H]1C(=O)N[C@@H](CCCNC(=N)N)C(=O)N1CCC[C@H]1C(=O)N[C@@H](CCCNC(=N)N)C(=O)N[C@@H](CCCNC(=N)N)C(=O)N1CCC[C@H]1C(=O)N[C@@H](Cc1c[nH]cn1)C(=O)N1CCC[C@H]1C(=O)N[C@@H](CCCNC(=N)N)C(=O)N[C@@H](CC(C)C)C(N)=O [compound 64] (H-GNNRPVYIPRPRRPHPRL-NH2; N-terminus assumed) | 2 (≈ 0.911 µM) | 64 (≈ 29.2 µM) | 8 | 4 (≈ 1.82 µM) | 4 (≈ 1.82 µM) | 64 | 32 (≈ 14.6 µM) | 2.5 (≈ 1.14 µM) | 2 | 8 (≈ 3.65 µM) |
| CC[C@H](C)[C@H](NC(=O)[C@H](Cc1ccc(O)cc1)NC(=O)[C@@H](NC(=O)[C@@H]1CCCN1C(=O)[C@H](CCCNC(=N)N)NC(=O)[C@H](CC(N)=O)NC(=O)[C@H](Cc1c[nH]c2ccccc12)NC(=O)CN)C(C)C)C(=O)N1CCC[C@H]1C(=O)N[C@@H](CCC(N)=O)C(=O)N1CCC[C@H]1C(=O)N[C@@H](CCCNC(=N)N)C(=O)N[C@@H](CCCNC(=N)N)C(=O)N1CCC[C@H]1C(=O)N[C@@H](Cc1c[nH]cn1)C(=O)N1CCC[C@H]1C(=O)N[C@@H](CCCNC(=N)N)C(=O)N[C@@H](CC(C)C)C(N)=O [compound 52] (H-GWNRPVYIPQPRRPHPRL-NH2; N-terminus assumed) | 2 (≈ 0.893 µM) | 64 (≈ 28.6 µM) | 8 | 4 to 8 | 4 to 8 | 31-64 | 64 (≈ 28.6 µM) | 5 (≈ 2.23 µM) | 1 | 16 (≈ 7.15 µM) |
| CC[C@H](C)[C@H](NC(=O)[C@H](Cc1ccc(O)cc1)NC(=O)[C@@H](NC(=O)[C@@H]1CCCN1C(=O)[C@H](CCCNC(=N)N)NC(=O)[C@H](CC(N)=O)NC(=O)[C@H](Cc1c[nH]c2ccccc12)NC(=O)CN)C(C)C)C(=O)N1CCC[C@H]1C(=O)N[C@@H](CCCNC(=N)N)C(=O)N1CCC[C@H]1C(=O)N[C@@H](CCCNC(=N)N)C(=O)N[C@@H](CCCNC(=N)N)C(=O)N1CCC[C@H]1C(=O)N[C@@H](Cc1c[nH]cn1)C(=O)N1CCC[C@H]1C(=O)N[C@@H](CCCNC(=N)N)C(=O)N[C@@H](CC(C)C)C(N)=O [compound 50] (H-GWNRPVYIPRPRRPHPRL-NH2; N-terminus assumed) | 2 (≈ 0.882 µM) | 32 (≈ 14.1 µM) | 16 | 2 (≈ 0.882 µM) | 2 (≈ 0.882 µM) | 128 | 32 (≈ 14.1 µM) | 2.5 (≈ 1.1 µM) | 2 | 8 (≈ 3.53 µM) |
| CC[C@H](C)[C@H](NC(=O)[C@H](Cc1ccc(O)cc1)NC(=O)[C@@H](NC(=O)[C@@H]1CCCN1C(=O)[C@H](CCCNC(=N)N)NC(=O)[C@H](CC(N)=O)NC(=O)[C@H](CC(N)=O)NC(=O)CN)C(C)C)C(=O)N1CCC[C@H]1C(=O)N[C@@H](CCC(N)=O)C(=O)N1CCC[C@H]1C(=O)N[C@@H](CCCNC(=N)N)C(=O)N1CCC[C@H]1C(=O)N1CCC[C@H]1C(=O)N[C@@H](Cc1c[nH]cn1)C(=O)N1CCC[C@H]1C(=O)N[C@@H](CCCNC(=N)N)C(=O)N[C@@H](CC(C)C)C(=O)O [compound 2] (H-GNNRPVYIPQPRPPHPRL-OH; N-terminus assumed) | 256 (≈ 121 µM) | 500 (≈ 237 µM) | 1 | >125 | >125 | 1 | >256 | 5 (≈ 2.37 µM) | 1 | 2 (≈ 0.949 µM) |
| CC[C@H](C)[C@H](NC(=O)[C@H](Cc1ccc(O)cc1)NC(=O)[C@@H](NC(=O)[C@@H]1CCCN1C(=O)[C@H](CCCNC(=N)N)NC(=O)[C@H](CC(N)=O)NC(=O)[C@H](CC(N)=O)NC(=O)CN)C(C)C)C(=O)N1CCC[C@H]1C(=O)N[C@@H](CCC(N)=O)C(=O)N1CCC[C@H]1C(=O)N[C@@H](CCCNC(=N)N)C(=O)N1CCC[C@H]1C(=O)N1CCC[C@H]1C(=O)N[C@@H](Cc1c[nH]cn1)C(=O)N1CCC[C@H]1C(=O)N[C@@H](CCCNC(=N)N)C(=O)N[C@@H](CC(C)C)C(N)=O [compound 90] (H-GNNRPVYIPQPRPPHPRL-NH2; N-terminus assumed) | 64 (≈ 30.4 µM) | 250 (≈ 119 µM) | 2 | >125 | >125 | – | – | 1.25 (≈ 0.593 µM) | 4 | 2 (≈ 0.949 µM) |
| CC[C@H](C)[C@H](NC(=O)[C@H](Cc1ccc(O)cc1)NC(=O)[C@@H](NC(=O)[C@@H]1CCCN1C(=O)[C@H](CCCNC(=N)N)NC(=O)[C@H](CC(N)=O)NC(=O)[C@H](CC(N)=O)NC(=O)CN)C(C)C)C(=O)N1CCC[C@H]1C(=O)N[C@@H](CCC(N)=O)C(=O)N1CCC[C@H]1C(=O)N[C@@H](CCCNC(=N)N)C(=O)N[C@@H](CCCNC(=N)N)C(=O)N1CCC[C@H]1C(=O)N[C@@H](Cc1c[nH]cn1)C(=O)N1CCC[C@H]1C(=O)N[C@@H](CCCNC(=N)N)C(=O)N[C@@H](CC(C)C)C(N)=O [compound 59] (H-GNNRPVYIPQPRRPHPRL-NH2; N-terminus assumed) | – | 125 (≈ 57.7 µM) | 4 | 31 (≈ 14.3 µM) | – | 8 | – | 10 (≈ 4.62 µM) | 1 | – |
| CC[C@H](C)[C@H](NC(=O)[C@H](Cc1ccc(O)cc1)NC(=O)[C@@H](NC(=O)[C@@H]1CCCN1C(=O)[C@H](CCCNC(=N)N)NC(=O)[C@H](CC(N)=O)NC(=O)[C@H](CC(N)=O)NC(=O)CN)C(C)C)C(=O)N1CCC[C@H]1C(=O)N[C@@H](CCC(N)=O)C(=O)N1CCC[C@H]1C(=O)N[C@@H](CCCNC(=N)N)C(=O)N1CCC[C@H]1C(=O)N1CCC[C@H]1C(=O)N[C@@H](Cc1c[nH]cn1)C(=O)N[C@@H](CS)C(=O)N[C@@H](CCCNC(=N)N)C(=O)N[C@@H](CC(C)C)C(N)=O [compound 61] (H-GNNRPVYIPQPRPPHCRL-NH2; N-terminus assumed) | – | 125 (≈ 59.1 µM) | 4 | 32 (≈ 15.1 µM) | – | 8 | – | – | 0 | – |
